Results published in patent publication US9273040B2 (Merck Sharp & Dohme Corp., priority 2011, dated 2016).

Tests used:
[1] = target: T1, human Nav1.7 channels stably expressed in HEK 293 cells (Homo sapiens, UniProt Q15858); assay: PatchXpress 7000 automated patch-clamp, sodium current; type: cell-based; settings: 22° C., read-out: potency for the Nav 1.7 sodium ion channel (as measured by PatchXpress)
T1 construct: expressed in transfected cells
Method in brief: (§1)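 IC50 values came from Hill-equation fits of rundown-corrected inhibition. PatchXpress recordings at 22° C held cells 20 mV negative to V0.5 inact and applied 10 Hz trains of 30 ms steps to −20 mV (Nav1.7) or an 8000 ms prepulse 7 mV positive to V0.5 inact. […]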

[2] = target: T2, human Nav1.5 channels stably expressed in HEK 293 cells (Homo sapiens, UniProt Q14524); assay: as above; type: cell-based; settings: selectivity over Nav1.5
T2 construct: expressed in transfected cells
Method in brief: as §1

T1 sequence (Q15858 whole entry): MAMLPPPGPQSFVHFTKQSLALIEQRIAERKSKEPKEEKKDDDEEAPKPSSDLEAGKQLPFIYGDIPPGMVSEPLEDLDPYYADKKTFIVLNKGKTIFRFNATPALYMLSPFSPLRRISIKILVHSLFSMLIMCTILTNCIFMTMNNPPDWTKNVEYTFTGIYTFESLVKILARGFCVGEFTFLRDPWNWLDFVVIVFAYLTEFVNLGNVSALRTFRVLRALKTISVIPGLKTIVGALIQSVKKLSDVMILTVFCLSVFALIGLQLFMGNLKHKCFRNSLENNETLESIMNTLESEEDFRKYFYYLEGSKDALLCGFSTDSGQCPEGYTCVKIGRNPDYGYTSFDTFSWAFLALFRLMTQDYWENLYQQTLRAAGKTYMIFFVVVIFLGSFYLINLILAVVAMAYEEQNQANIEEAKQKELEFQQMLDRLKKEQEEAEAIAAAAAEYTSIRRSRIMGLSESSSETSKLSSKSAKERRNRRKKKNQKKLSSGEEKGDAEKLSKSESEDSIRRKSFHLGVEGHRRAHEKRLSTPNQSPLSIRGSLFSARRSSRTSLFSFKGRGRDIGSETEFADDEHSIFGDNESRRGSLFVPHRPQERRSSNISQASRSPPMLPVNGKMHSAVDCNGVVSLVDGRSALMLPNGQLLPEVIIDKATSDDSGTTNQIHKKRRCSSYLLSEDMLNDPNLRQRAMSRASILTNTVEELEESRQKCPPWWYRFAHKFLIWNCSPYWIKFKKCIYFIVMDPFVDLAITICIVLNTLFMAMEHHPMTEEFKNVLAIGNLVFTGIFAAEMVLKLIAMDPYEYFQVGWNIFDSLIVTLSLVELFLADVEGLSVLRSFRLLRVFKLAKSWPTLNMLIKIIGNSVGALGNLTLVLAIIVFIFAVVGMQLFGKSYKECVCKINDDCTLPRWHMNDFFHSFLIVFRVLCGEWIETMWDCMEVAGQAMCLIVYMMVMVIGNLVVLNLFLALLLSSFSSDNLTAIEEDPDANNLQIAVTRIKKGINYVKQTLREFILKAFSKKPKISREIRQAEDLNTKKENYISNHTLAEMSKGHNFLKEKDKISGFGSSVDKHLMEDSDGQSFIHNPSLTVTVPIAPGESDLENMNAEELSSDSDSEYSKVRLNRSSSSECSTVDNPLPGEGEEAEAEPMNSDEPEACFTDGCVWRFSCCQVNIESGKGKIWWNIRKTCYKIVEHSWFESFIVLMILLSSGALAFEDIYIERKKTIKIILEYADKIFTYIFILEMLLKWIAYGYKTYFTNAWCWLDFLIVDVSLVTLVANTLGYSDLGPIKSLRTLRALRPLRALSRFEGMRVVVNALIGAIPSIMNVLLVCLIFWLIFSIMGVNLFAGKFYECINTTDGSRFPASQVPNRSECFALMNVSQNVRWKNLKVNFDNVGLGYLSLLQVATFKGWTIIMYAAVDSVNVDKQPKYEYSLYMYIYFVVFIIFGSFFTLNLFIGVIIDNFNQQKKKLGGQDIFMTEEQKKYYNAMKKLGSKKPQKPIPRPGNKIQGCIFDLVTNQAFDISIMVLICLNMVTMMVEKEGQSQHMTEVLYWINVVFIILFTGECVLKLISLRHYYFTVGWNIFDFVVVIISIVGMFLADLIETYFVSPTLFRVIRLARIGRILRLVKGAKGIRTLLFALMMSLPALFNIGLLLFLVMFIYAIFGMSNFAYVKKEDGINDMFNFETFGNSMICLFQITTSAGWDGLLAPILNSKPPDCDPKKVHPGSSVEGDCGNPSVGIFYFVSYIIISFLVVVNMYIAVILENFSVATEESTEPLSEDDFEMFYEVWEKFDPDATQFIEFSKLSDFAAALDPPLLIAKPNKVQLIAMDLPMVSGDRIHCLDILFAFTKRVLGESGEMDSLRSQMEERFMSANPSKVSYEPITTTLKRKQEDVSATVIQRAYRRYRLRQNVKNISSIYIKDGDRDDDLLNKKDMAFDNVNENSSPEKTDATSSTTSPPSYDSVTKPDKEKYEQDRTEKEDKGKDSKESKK
T2 sequence (Q14524 whole entry): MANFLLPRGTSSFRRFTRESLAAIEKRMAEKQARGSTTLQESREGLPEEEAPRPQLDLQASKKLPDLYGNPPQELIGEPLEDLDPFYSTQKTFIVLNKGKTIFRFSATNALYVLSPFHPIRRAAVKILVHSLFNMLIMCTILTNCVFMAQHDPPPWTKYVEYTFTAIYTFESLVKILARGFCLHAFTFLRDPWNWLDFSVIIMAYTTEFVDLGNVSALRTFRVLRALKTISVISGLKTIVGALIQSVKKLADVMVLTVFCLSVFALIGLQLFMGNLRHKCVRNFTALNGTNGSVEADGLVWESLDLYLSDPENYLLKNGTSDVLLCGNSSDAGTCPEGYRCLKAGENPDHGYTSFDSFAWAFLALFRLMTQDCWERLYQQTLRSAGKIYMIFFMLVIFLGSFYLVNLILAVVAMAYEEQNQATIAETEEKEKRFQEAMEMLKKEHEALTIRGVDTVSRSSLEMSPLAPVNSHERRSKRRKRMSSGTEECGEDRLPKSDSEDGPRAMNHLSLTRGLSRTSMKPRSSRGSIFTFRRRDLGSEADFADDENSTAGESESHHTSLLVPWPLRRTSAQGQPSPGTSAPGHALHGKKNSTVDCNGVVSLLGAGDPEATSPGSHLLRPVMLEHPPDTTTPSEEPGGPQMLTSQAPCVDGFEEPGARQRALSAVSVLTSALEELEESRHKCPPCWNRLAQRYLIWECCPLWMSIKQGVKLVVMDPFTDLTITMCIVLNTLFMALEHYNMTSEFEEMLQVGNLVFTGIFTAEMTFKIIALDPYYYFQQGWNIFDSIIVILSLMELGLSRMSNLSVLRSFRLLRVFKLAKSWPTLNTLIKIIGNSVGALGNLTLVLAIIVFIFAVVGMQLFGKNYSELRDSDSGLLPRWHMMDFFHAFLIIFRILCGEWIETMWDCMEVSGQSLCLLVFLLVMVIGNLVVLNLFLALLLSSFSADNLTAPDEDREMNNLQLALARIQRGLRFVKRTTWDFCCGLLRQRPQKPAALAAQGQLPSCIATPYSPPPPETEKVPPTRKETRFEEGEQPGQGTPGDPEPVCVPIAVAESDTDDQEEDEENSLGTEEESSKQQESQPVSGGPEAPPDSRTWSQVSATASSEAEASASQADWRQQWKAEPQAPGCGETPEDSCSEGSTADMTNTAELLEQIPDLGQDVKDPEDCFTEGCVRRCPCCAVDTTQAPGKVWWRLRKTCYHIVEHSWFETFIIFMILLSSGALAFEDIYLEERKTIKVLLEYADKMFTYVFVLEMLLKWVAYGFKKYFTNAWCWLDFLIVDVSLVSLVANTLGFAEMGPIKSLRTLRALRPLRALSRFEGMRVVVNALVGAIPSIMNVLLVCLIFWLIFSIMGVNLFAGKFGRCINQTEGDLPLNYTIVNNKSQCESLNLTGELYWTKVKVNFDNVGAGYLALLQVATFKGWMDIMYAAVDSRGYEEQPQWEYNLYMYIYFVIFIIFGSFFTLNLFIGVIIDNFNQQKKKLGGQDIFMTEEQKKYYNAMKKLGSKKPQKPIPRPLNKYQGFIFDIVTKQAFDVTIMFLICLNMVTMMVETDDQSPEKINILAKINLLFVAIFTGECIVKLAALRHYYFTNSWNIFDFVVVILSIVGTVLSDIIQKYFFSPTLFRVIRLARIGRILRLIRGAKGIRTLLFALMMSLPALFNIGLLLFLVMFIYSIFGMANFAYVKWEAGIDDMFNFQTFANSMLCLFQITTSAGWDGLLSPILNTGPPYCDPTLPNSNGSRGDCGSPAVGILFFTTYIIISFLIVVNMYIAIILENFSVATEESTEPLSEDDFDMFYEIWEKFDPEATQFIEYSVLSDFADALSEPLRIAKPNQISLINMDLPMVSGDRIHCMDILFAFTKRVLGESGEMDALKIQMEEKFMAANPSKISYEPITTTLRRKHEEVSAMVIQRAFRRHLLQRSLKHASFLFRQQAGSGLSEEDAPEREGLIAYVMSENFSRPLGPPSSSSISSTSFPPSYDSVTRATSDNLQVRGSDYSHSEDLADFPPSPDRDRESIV

| SMILES | IC50 [1] | ratio of Nav 1.5:Nav 1.7 potency, determined by PatchXpress measurement [2] |
| --- | --- | --- |
| O=c1oc2cc(S(=O)(=O)Nc3ncns3)c(F)cc2n1Cc1cccc2c1CC(NCC(F)F)CC2 (racemic) [Compound 23-13, (+/−)-3-({7-[(2,2-difluoroethyl)amino]-5,6,7,8-tetrahydronaphthalen-1-yl}methyl)-5-fluoro-2-oxo-N-1,2,4-thiadiazol-5-yl-2,3-dihydro-1,3-benzoxazole-6-sulfonamide] | 84 nM | 121 |
| C[C@H](c1ccccc1)n1c(=O)oc2cc(S(=O)(=O)Nc3nccs3)c(F)cc21 [Compound 43-2, (R)-5-fluoro-2-oxo-3-(1-phenylethyl)-N-(thiazol-2-yl)-2,3-dihydrobenzo[d]oxazole-6-sulfonamide] | 68 nM | 88 |
| C[C@H](c1ccccc1C#CCC(C)(C)N)n1c(=O)oc2cc(S(=O)(=O)Nc3ncns3)c(F)cc21 [Compound 17-15, 3-{(1R)-1-[2-(4-amino-4-methylpent-1-yn-1-yl)phenyl]ethyl}-5-fluoro-2-oxo-N-1,2,4-thiadiazol-5-yl-2,3-dihydro-1,3-benzoxazole-6-sulfonamide] | 32 nM | 1566 |
| C[C@H](c1ccccc1C1CNC1)n1c(=O)oc2cc(S(=O)(=O)Nc3ncns3)c(F)cc21 [Compound 31-1, (R)-3-(1-(2-(azetidin-3-yl)phenyl)ethyl)-5-fluoro-2-oxo-N-(1,2,4-thiadiazol-5-yl)-2,3-dihydrobenzo[d]oxazole-6-sulfonamide] | 15 nM | 603 |
| C[C@H](c1cccc2c1CC(N)CC2)n1c(=O)oc2cc(S(=O)(=O)Nc3ncns3)c(F)cc21 (single isomer, unassigned) [Compound 23-25, (R or S)-3-[(1R)-1-(7-amino-5,6,7,8-tetrahydronaphthalen-1-yl)ethyl]-5-fluoro-2-oxo-N-1,2,4-thiadiazol-5-yl-2,3-dihydro-1,3-benzoxazole-6-sulfonamide] | 15 nM | 203 |
| O=c1oc2cc(S(=O)(=O)Nc3ncns3)ccc2n1Cc1cccc2cc(Cl)ncc12 [Compound 27-7, 3-[(3-chloroisoquinolin-8-yl)methyl]-2-oxo-N-1,2,4-thiadiazol-5-yl-2,3-dihydro-1,3-benzoxazole] | 182 nM | 144 |
| C[C@H](c1ccccc1C#C[C@H]1CCCN1)n1c(=O)oc2cc(S(=O)(=O)Nc3ncns3)c(F)cc21 [Compound 17-21, 5-fluoro-2-oxo-3-[(1R)-1-{2-[(2R)-pyrrolidin-2-ylethynyl]phenyl}ethyl]-N-1,2,4-thiadiazol-5-yl-2,3-dihydro-1,3-benzoxazole-6-sulfonamide] | 13 nM | 2344 |
| O=c1oc2cc(S(=O)(=O)Nc3ncns3)c(F)cc2n1Cc1cccc2c1CC(NCc1ccccc1)CC2 (racemic) [Compound 23-23, (+/−)-3-{[7-(benzylamino)-5,6,7,8-tetrahydronaphthalen-1-yl]methyl}-5-fluoro-2-oxo-N-1,2,4-thiadiazol-5-yl-2,3-dihydro-1,3-benzoxazole-6-sulfonamide] | 24 nM | 502 |
| O=c1oc2cc(S(=O)(=O)Nc3ncns3)c(F)cc2n1Cc1cccc2c1CC(N1CCCC1C(F)(F)F)CC2 (racemic) [Compound 23-11, (+/−)-5-fluoro-2-oxo-N-1,2,4-thiadiazol-5-yl-3-({7-[2-(trifluoromethyl)pyrrolidin-1-yl]-5,6,7,8-tetrahydronaphthalen-1-yl}methyl)-2,3-dihydro-1,3-benzoxazole-6-sulfonamide] | 115 nM | 73 |
| O=c1oc2cc(S(=O)(=O)Nc3ncns3)c(F)cc2n1C1CCOc2ccc(F)cc21 (stereo not drawn) [Compound 39-13, 5-fluoro-3-(6-fluoro-3,4-dihydro-2H-chromen-4-yl)-2-oxo-N-1,2,4-thiadiazol-5-yl-2,3-dihydro-1,3-benzoxazole-6-sulfonamide] | 112 nM | 295 |
| O=c1oc2cc(S(=O)(=O)Nc3ncns3)c(F)cc2n1[C@H](CO)c1ccccc1 [Compound 13-12, 5-fluoro-3-[(1S)-2-hydroxy-1-phenylethyl]-2-oxo-N-1,2,4-thiadiazol-5-yl-2,3-dihydro-1,3-benzoxazole-6-sulfonamide] | 422 nM | > 71 |
| O=c1oc2cc(S(=O)(=O)Nc3nccs3)c(F)cc2n1Cc1cccc2c1CNCC2F (single isomer, unassigned) [Compound 43-28, (S or R)-5-fluoro-3-[(4-fluoro-1,2,3,4-tetrahydroisoquinolin-8-yl)methyl]-2-oxo-N-1,3-thiazol-2-yl-2,3-dihydro-1,3-benzoxazole-6-sulfonamide] | 120 nM | 684 |
| NC1Cc2cccc(Cn3c(=O)oc4cc(S(=O)(=O)Nc5ncns5)c(F)cc43)c2C1 (racemic) [Compound 23-17, (+/−)-3-[(2-amino-2,3-dihydro-1H-inden-4-yl)methyl]-5-fluoro-2-oxo-N-1,2,4-thiadiazol-5-yl-2,3-dihydro-1,3-benzoxazole-6-sulfonamide] | 50 nM | 321 |
| NC1CCc2cccc(Cn3c(=O)oc4cc(S(=O)(=O)Nc5ncns5)c(F)cc43)c2C1 (racemic) [Compound 20-4, 3-((7-amino-5,6,7,8-tetrahydronaphthalen-1-yl)methyl)-5-fluoro-2-oxo-N-(1,2,4-thiadiazol-5-yl)-2,3-dihydrobenzo[d]oxazole-6-sulfonamide] | 179 nM | 167 |
| Cn1cc2cccc(Cn3c(=O)oc4cc(S(=O)(=O)Nc5ncns5)c(F)cc43)c2n1 [Compound 11-11, 5-fluoro-3-[(2-methyl-2H-indazol-7-yl)methyl]-2-oxo-N-1,2,4-thiadiazol-5-yl-2,3-dihydro-1,3-benzoxazole-6-sulfonamide] | 490 nM | 81 |
| CC1(C)CCC(n2c(=O)oc3cc(S(=O)(=O)Nc4ncns4)c(F)cc32)c2ccccc21 (stereo not drawn) [Compound 39-12, 3-(4,4-dimethyl-1,2,3,4-tetrahydronaphthalen-1-yl)-5-fluoro-2-oxo-N-1,2,4-thiadiazol-5-yl-2,3-dihydro-1,3-benzoxazole-6-sulfonamide] | 159 nM | 38 |
| C[C@H](c1ccccc1C1(F)CNC1)n1c(=O)oc2cc(S(=O)(=O)Nc3ncns3)c(F)cc21 [Compound 32-6, (R)-5-Fluoro-3-(1-(2-(3-fluoroazetidin-3-yl)phenyl)ethyl)-2-oxo-N-(1,2,4-thiadiazol-5-yl)-2,3-dihydrobenzo[d]oxazole-6-sulfonamide] | 18 nM | 1333 |
| C[C@H](c1cccc2ccncc12)n1c(=O)oc2cc(S(=O)(=O)Nc3ncns3)c(F)cc21 [Compound 14-8, 5-fluoro-3-[(1R)-1-isoquinolin-8-ylethyl]-2-oxo-N-1,2,4-thiadiazol-5-yl-2,3-dihydro-1,3-benzoxazole-6-sulfonamid] | 71 nM | 114 |
| CCc1cc2c(cc1S(=O)(=O)Nc1ncns1)oc(=O)n2[C@H](C)c1ccccc1 [Compound 38-2, 5-ethyl-2-oxo-3-[(1R)-1-phenylethyl]-N-1,2,4-thiadiazol-5-yl-2,3-dihydro-1,3-benzoxazole-6-sulfonamide] | 94 nM | 17 |
| C[C@H](c1ccccc1C#C[C@@H](C)O)n1c(=O)oc2cc(S(=O)(=O)Nc3ncns3)c(F)cc21 [Compound 17-7, 5-fluoro-3-[(1R)-1-{2-[(3R)-3-hydroxybut-1-yn-1-yl]phenyl}ethyl]-2-oxo-N-1,2,4-thiadiazol-5-yl-2,3-dihydro-1,3-benzoxazole-6-sulfonamide] | 78 nM | 1257 |
| C[C@H](c1ccccc1C#CC1CCNC1)n1c(=O)oc2cc(S(=O)(=O)Nc3ncns3)c(F)cc21 (stereo partly drawn) [Compound 17-14, 5-fluoro-2-oxo-3-{(1R)-1-[2-(pyrrolidin-3-ylethynyl)phenyl]ethyl}-N-1,2,4-thiadiazol-5-yl-2,3-dihydro-1,3-benzoxazole-6-sulfonamide] | 34 nM | 1055 |
| C[C@H](c1ccccc1C1(O)CNC1)n1c(=O)oc2cc(S(=O)(=O)Nc3nccs3)c(F)cc21 [Compound 43-22, 5-fluoro-3-{(1R)-1-[2-(3-hydroxyazetidin-3-yl)phenyl]ethyl}-2-oxo-N-1,3-thiazol-2-yl-2,3-dihydro-1,3-benzoxazole-6-sulfonamide] | 61 nM | 703 |
| C[C@H](c1cccc2ccncc12)n1c(=O)oc2cc(S(=O)(=O)Nc3ncns3)ccc21 [Compound 14-7, (R)-3-(1-(isoquinolin-8-yl)ethyl)-2-oxo-N-(1,2,4-thiadiazol-5-yl)-2,3-dihydrobenzo[d]oxazole-6-sulfonamide] | 40 nM | 749 |
| C[C@H](c1ccccc1C#CCCO)n1c(=O)oc2cc(S(=O)(=O)Nc3ncns3)c(F)cc21 [Compound 17-4, 5-fluoro-3-{(1R)-1-[2-(4-hydroxybut-1-yn-1-yl)phenyl]ethyl}-2-oxo-N-1,2,4-thiadiazol-5-yl-2,3-dihydro-1,3-benzoxazole-6-sulfonamide] | 147 nM | 360 |
